The values that follow come from patent US8883782B2, “Spiro-tetracyclic ring compounds as beta-secretase modulators and methods of use” (Amgen Inc., priority 2010, dated 2014).

Like-named read-outs stand apart in the source and are kept apart here.

Assay [1] deals with Beta Secretase enzyme (BACE) (Homo sapiens, UniProt P56817). Description: In vitro enzymatic BACE FRET (fluorescence resonance energy transfer) assay. The note with it: average IC50, enzyme assay; read-out: BACE 1 FRET assay. The format is biochemical. The gist of the method: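 Enzyme activity was measured at pH 4.2 (0.05 M acetate, 10% DMSO final, 100 uM genapol) by cleavage of a 50 nM quenched fluorogenic peptide. After one hour, Tris was added to neutralise the pH and fluorescence was recorded.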

Assay [2] concerns Aβ40 in conditioned medium of cells stably expressing Amyloid Precursor Protein (APP). The assay can be described thus: In vitro BACE cell-based assay (Aβ40 in conditioned medium, sandwich ELISA). The note with it: read-out: HEK cell assay. The gist of the method: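 The sandwich ELISA pairs pAb40 capture (3 h, 4 °C) with 6E10 detection (2 h, 4 °C) and a streptavidin-europium TRF read-out. Supernatants come from APP-expressing cells grown in 10% FBS DMEM.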

Setting [3] is: Homo sapiens, HEK293, average IC50.
The mark [4] stands for this setting: Homo sapiens, HEK293, average IC50, HEK cells.

Chain of Beta Secretase enzyme (BACE) (P56817 46-501, species assumed): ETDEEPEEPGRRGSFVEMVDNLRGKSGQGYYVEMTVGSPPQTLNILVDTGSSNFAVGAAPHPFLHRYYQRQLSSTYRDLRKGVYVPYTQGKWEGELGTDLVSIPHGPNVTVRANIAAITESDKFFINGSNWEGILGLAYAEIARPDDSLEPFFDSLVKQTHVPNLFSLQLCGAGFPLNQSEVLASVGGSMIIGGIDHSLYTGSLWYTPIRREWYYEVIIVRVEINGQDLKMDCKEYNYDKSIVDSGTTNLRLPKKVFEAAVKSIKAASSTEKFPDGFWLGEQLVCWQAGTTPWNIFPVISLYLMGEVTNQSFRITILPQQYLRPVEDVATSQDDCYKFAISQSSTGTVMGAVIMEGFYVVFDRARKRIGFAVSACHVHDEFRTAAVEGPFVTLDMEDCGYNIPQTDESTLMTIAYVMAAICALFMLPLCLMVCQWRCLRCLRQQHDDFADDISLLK

Consider `COc1ccc2c(c1)[C@@]1(COC(N)=N1)c1cc(SCc3ccccc3)cnc1O2` [Example 185, (5S)-3-(benzylsulfanyl)-7-methoxyspiro[chromeno[2,3-b]pyridine-5,4′-[1,3]oxazol]-2′-amine], for which the values for the IC50 in assay [1] and in assay [2] (setting [3]) were 5060 nM and 10000 nM, respectively.
`CC1(COc2cc(F)c3c(c2)[C@]2(CSC(N)=N2)c2cc(-c4cncnc4)c(F)cc2O3)COC1` [Example 875, (4S)-3′,5′-difluoro-7′-((3-methyl-3-oxetanyl)methoxy)-2′-(5-pyrimidinyl)spiro[1,3-thiazole-4,9′-xanthen]-2-amine]: the IC50 in assay [1] was found to be 0.5 nM; in assay [2] (setting [4]), 8 nM.
On to `CC1(C#Cc2cnc3c(c2)[C@]2(COC(N)=N2)c2cc(-c4cncc(Cl)c4)c(F)cc2O3)COC1` [Example 626, (5S)-7-(5-chloro-3-pyridinyl)-8-fluoro-3-((3-methyl-3-oxetanyl)ethynyl)spiro[chromeno[2,3-b]pyridine-5,4′-[1,3]oxazol]-2′-amine], for which the results for the IC50 in assay [1] and in assay [2] (setting [4]) were 0.8 nM and 6 nM, respectively.
Consider `CC1(COc2cc3c(cc2F)Oc2ccc(-c4cccc(Cl)c4)cc2[C@@]32COC(N)=N2)COC1` [Example 310, (4S)-7′-(3-chlorophenyl)-3′-fluoro-2′-((3-methyl-3-oxetanyl)methoxy)spiro[1,3-oxazole-4,9′-xanthen]-2-amine], for which the results for the IC50 in assay [1] and in assay [2] (setting [3]) were 3.2 nM and 113 nM, respectively.
Regarding `COc1cncc(-c2ccc3c(c2)[C@@]2(COC(N)=N2)c2cc(C4=CCOCC4)ccc2O3)c1` [Example 194, (4R)-2′-(3,6-dihydro-2H-pyran-4-yl)-7′-(5-methoxy-3-pyridinyl)spiro[1,3-oxazole-4,9′-xanthen]-2-amine], the IC50 in assay [1] worked out at 8 nM; in assay [2] (setting [3]), 27.4 nM.
For `COc1ccc(-c2cc(F)c3c(c2)[C@]2(COC(N)=N2)c2cc(-c4cccnc4F)ccc2O3)nn1` [Example 275, (4S)-4′-fluoro-7′-(2-fluoro-3-pyridinyl)-2′-(6-methoxy-3-pyridazinyl)spiro[1,3-oxazole-4,9′-xanthen]-2-amine], the IC50 is 0.7 nM in assay [1] and 8 nM in assay [2] (setting [3]).
For the compound `CC(C)(C)C#Cc1cnc2c(c1)[C@@]1(COC(N)=N1)c1c(ccc(-c3cncnc3)c1F)O2` [Example 337, (5S)-3-(3,3-dimethyl-1-butyn-1-yl)-6-fluoro-7-(5-pyrimidinyl)spiro[chromeno[2,3-b]pyridine-5,4′-[1,3]oxazol]-2′-amine], the IC50 came to 836 nM in assay [1] and 535 nM in assay [2] (setting [3]).
Consider `Cc1cc(-c2cc(F)c3c(c2)[C@]2(CSC(N)=N2)c2cc(-c4cccnc4F)ccc2O3)ccn1` [Example 1072, (4S)-4′-fluoro-7′-(2-fluoro-3-pyridinyl)-2′-(2-methyl-4-pyridinyl)spiro[1,3-thiazole-4,9′-xanthen]-2-amine], for which the IC50 in assay [1] amounted to 3.3 nM; in assay [2] (setting [3]), 29 nM.
Consider `CC(C)(C)OCc1cnc2c(c1)[C@]1(COC(N)=N1)c1cc(-c3cccnc3F)c(F)cc1O2` [Example 716, (S)-3-(tert-butoxymethyl)-8-fluoro-7-(2-fluoropyridin-3-yl)-5′H-spiro[chromeno[2,3-b]pyridine-5,4′-oxazol]-2′-amine], for which the IC50 in assay [1] is 6.5 nM; in assay [2] (setting [4]) it was 132 nM.
For the compound `CC1(C)C[C@H](c2cnc3c(c2)[C@]2(COC(N)=N2)c2cc(-c4cncc(Cl)c4)ccc2O3)CCO1` [Example 475, (5S)-7-(5-chloro-3-pyridinyl)-3-((4R)-2,2-dimethyltetrahydro-2H-pyran-4-yl)spiro[chromeno[2,3-b]pyridine-5,4′-[1,3]oxazol]-2′-amine], the IC50 came out at 2.2 nM in assay [1] and 7.3 nM in assay [2] (setting [4]).
With `CC1(C#Cc2cc3c(cn2)Oc2ccc(-c4cc(Cl)cnc4F)cc2[C@@]32COC(N)=N2)COC1` [Example 158, (5S)-7-(5-chloro-2-fluoro-3-pyridinyl)-3-((3-methyl-3-oxetanyl)ethynyl)spiro[chromeno[2,3-c]pyridine-5,4′-[1,3]oxazol]-2′-amine], the figures for the IC50 in assay [1] and in assay [2] (setting [3]) were 1 nM and 11.6 nM, respectively.
As for `NC1=N[C@@]2(CO1)c1cc(Oc3cc(Cl)ccn3)ccc1Oc1c(F)cc(N3CCOCC3)cc12` [Example 1062, (4S)-7′-((4-chloro-2-pyridinyl)oxy)-4′-fluoro-2′-(4-morpholinyl)spiro[1,3-oxazole-4,9′-xanthen]-2-amine], the IC50 in assay [1] stood at 22.3 nM; in assay [2] (setting [3]) it was 374 nM.
As to `C[C@@H]1CN(c2cc(F)c3c(c2)[C@]2(COC(N)=N2)c2cc(-c4cncc(F)c4)ccc2O3)C[C@H](C)O1` [Example 274, (4S)-2′-((2R,6S)-2,6-dimethyl-4-morpholinyl)-4′-fluoro-7′-(5-fluoro-3-pyridinyl)spiro[1,3-oxazole-4,9′-xanthen]-2-amine], the IC50 in assay [1] was found to be 2.9 nM; in assay [2] (setting [3]) it was 10.4 nM.
For `COCC1SC(N)=NC12c1cc(-c3cccnc3F)ccc1Oc1c(F)cc(OC)cc12` [Example 1089, (4S/R,5S)-4′-fluoro-7′-(2-fluoropyridin-3-yl)-2′-methoxy-5-(methoxymethyl)-5H-spiro[thiazole-4,9′-xanthen]-2-amine], the IC50 was 3.3 nM in assay [1] and 923 nM in assay [2] (average IC50).
On to `CC(C)(C#N)COc1ccc2c(c1)[C@@]1(COC(N)=N1)c1cc(C3=CCOCC3)cc(F)c1O2` [Example 441, 3-(((4S)-2-amino-7′-(3,6-dihydro-2H-pyran-4-yl)-5′-fluorospiro[1,3-oxazole-4,9′-xanthen]-2′-yl)oxy)-2,2-dimethylpropanenitrile], for which the IC50 in assay [1] turned out to be 4 nM; in assay [2] (setting [4]), 14.4 nM.
As to “(5R)-7-bromo-3-fluoro-1-methoxyspiro[chromeno[2,3-c]pyridine-5,4′-[1,3]oxazol]-2′-amine, (5S)-7-bromo-3-fluoro-1-methoxyspiro[chromeno[2,3-c]pyridine-5,4′-[1,3]oxazol]-2′-amine [Example 846]”, the values for the IC50 in assay [1] and in assay [2] (average IC50) were 1.4 nM and 14 nM, respectively.
Regarding `CC1(C)CC(c2cc3c(cn2)Oc2ccc(-c4ccc(F)nc4)cc2[C@@]32COC(N)=N2)=CCO1` [Example 370, (5S)-3-(2,2-dimethyl-3,6-dihydro-2H-pyran-4-yl)-7-(6-fluoro-3-pyridinyl)spiro[chromeno[2,3-c]pyridine-5,4′-[1,3]oxazol]-2′-amine], the IC50 in assay [1] turned out to be 3.6 nM; in assay [2] (setting [3]) it was 23.7 nM.
With `NC1=N[C@@]2(CO1)c1cc(-c3cccnc3F)ccc1Oc1c(F)cc(-c3cccnn3)cc12` [Example 201, (4S)-4′-fluoro-7′-(2-fluoro-3-pyridinyl)-2′-(3-pyridazinyl)spiro[1,3-oxazole-4,9′-xanthen]-2-amine], the IC50 in assay [1] turned out to be 1.8 nM; in assay [2] (setting [3]), 7.6 nM.
In the case of `NC1=N[C@@]2(CS1)c1cc(-c3cccnc3F)ccc1Oc1ncc(-c3cccnc3)cc12` [Example 765, (5S)-7-(2-fluoro-3-pyridinyl)-3-(3-pyridinyl)spiro[chromeno[2,3-b]pyridine-5,4′-[1,3]thiazol]-2′-amine], the IC50 in assay [1] stood at 1 nM; in assay [2] (setting [3]), 8 nM.
Regarding `NC1=N[C@@]2(CO1)c1cc(-c3cccnc3F)c(F)cc1Oc1ncc(-c3ccc(F)nc3)cc12` [Example 896, (5S)-8-fluoro-7-(2-fluoro-3-pyridinyl)-3-(6-fluoro-3-pyridinyl)spiro[chromeno[2,3-b]pyridine-5,4′-[1,3]oxazol]-2′-amine], the IC50 in assay [1] is 2.4 nM; in assay [2] (setting [4]), 74 nM.
Take `NC1=N[C@@]2(CO1)c1cc(-c3cccnc3)ccc1Oc1c2cc(-c2cccnc2)nc1F` [Example 494, (5S)-1-fluoro-3,7-di-3-pyridinylspiro[chromeno[2,3-c]pyridine-5,4′-[1,3]oxazol]-2′-amine]: the results for the IC50 in assay [1] and in assay [2] (setting [4]) were 0.5 nM and 5.3 nM, respectively.
As for `NC1=N[C@]2(CO1)c1cc(-c3cccnc3F)ccc1Oc1c2cc(Br)nc1F` [Example 736, (5R)-3-bromo-1-fluoro-7-(2-fluoro-3-pyridinyl)spiro[chromeno[2,3-c]pyridine-5,4′-[1,3]oxazol]-2′-amine], the IC50 in assay [1] was 2090 nM; in assay [2] (setting [3]) it was not below 10000 nM.
In the case of `NC1=N[C@@]2(CO1)c1cc(-c3cncnc3)c(F)cc1Oc1c(F)cc(C3=CCOCC3)cc12` [Example 1038, (4S)-7′-(3,6-dihydro-2H-pyran-4-yl)-3′,5′-difluoro-2′-(5-pyrimidinyl)spiro[1,3-oxazole-4,9′-xanthen]-2-amine], the IC50 in assay [1] was determined as 0.4 nM; in assay [2] (setting [3]), 10 nM.
For `NC1=N[C@@]2(CO1)c1cc(-c3cccnc3)c(F)cc1Oc1c(F)cc(C3CCOCC3)cc12` [Example 864, (4S)-3′,5′-difluoro-2′-(3-pyridinyl)-7′-(tetrahydro-2H-pyran-4-yl)spiro[1,3-oxazole-4,9′-xanthen]-2-amine], the IC50 is 1.1 nM in assay [1] and 30 nM in assay [2] (setting [4]).
The corresponding values for `NC1=N[C@@]2(CO1)c1cc(-c3ccc(F)cc3)ccc1Oc1cnc(C3=CCOCC3)cc12` [Example 394, (5S)-3-(3,6-dihydro-2H-pyran-4-yl)-7-(4-fluorophenyl)spiro[chromeno[2,3-c]pyridine-5,4′-[1,3]oxazol]-2′-amine] are 9.4 nM and 138 nM.
As for `CC(C)(C)C#Cc1cc2c(nc1F)Oc1ccc(-c3cccnc3F)cc1C21COC(N)=N1` (stereo not drawn) [Example 148, 3-(3,3-dimethyl-1-butyn-1-yl)-2-fluoro-7-(2-fluoro-3-pyridinyl)spiro[chromeno[2,3-b]pyridine-5,4′-[1,3]oxazol]-2′-amine], the IC50 in assay [1] turned out to be 0.7 nM; in assay [2] (setting [3]), 21.4 nM.
Take `COc1ccc(-c2cnc3c(c2)[C@]2(CSC(N)=N2)c2cc(C#CC4(C)COC4)ccc2O3)cn1` [Example 941, (5S)-3-(6-methoxy-3-pyridinyl)-7-((3-methyl-3-oxetanyl)ethynyl)spiro[chromeno[2,3-b]pyridine-5,4′-[1,3]thiazol]-2′-amine]: the IC50 amounted to 3.8 nM in assay [1] and 97 nM in assay [2] (setting [4]).
